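Tested at 5 concentrations; 48 h exposure; 96-well plates; endpoints linearly interpolated, else capped at highest concentration. GI50 = concentration required for 50% inhibition of growth. Definition used: TGI = concentration required for complete inhibition of growth.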
Tests used:
Assay in all cases: inhibition of tumour cell growth, NCI panel, 48 h
ACHN renal = system: ACHN renal
BT-549 breast = system: BT-549 breast
DU-145 prostate = system: DU-145 prostate
HCT-15 colon = system: HCT-15 colon
MCF7 breast = system: MCF7 breast
MDA-MB-231 breast = system: MDA-MB-231 breast
RXF 393 renal = system: RXF 393 renal
SK-OV-3 ovarian = system: SK-OV-3 ovarian
SR leukemia = system: SR leukemia
UACC-257 melanoma = system: UACC-257 melanoma

Structure (SMILES) | GI50 (ACHN renal) | TGI (ACHN renal) | GI50 (BT-549 breast) | TGI (BT-549 breast) | GI50 (DU-145 prostate) | TGI (DU-145 prostate) | GI50 (HCT-15 colon) | TGI (HCT-15 colon) | GI50 (MCF7 breast) | TGI (MCF7 breast) | GI50 (MDA-MB-231 breast) | TGI (MDA-MB-231 breast) | GI50 (RXF 393 renal) | TGI (RXF 393 renal) | GI50 (SK-OV-3 ovarian) | TGI (SK-OV-3 ovarian) | GI50 (SR leukemia) | TGI (SR leukemia) | GI50 (UACC-257 melanoma) | TGI (UACC-257 melanoma)
O=C1C[C@@H]2/C(=C(O)\C=C\c3ccccc3)C(=O)C=C[C@@H]2O1 | 1560 nM | 3.29 µM | 2840 nM | 8.45 µM | 515 nM | 1.93 µM | 1300 nM | 3.69 µM | 830 nM | 13.5 µM | 2130 nM | 4.21 µM | 1470 nM | 2.83 µM | 4.86 µM | 16.9 µM | 464 nM | 17 µM | 1830 nM | 3.9 µM
O=c1c(O)c(-c2cc(O)c(O)c(O)c2)oc2cc(O)cc(O)c12 |  | > 100 µM |  | > 100 µM |  | > 100 µM |  | 71.8 µM |  | 37.4 µM |  | 35.8 µM |  | 43.4 µM |  | > 100 µM |  | > 100 µM |  | > 100 µM
CC12CCC(Br)C(C)(C)C1CC=C1C(=O)OCC1O2 (stereo not given) |  | 26.2 µM |  | 41 µM |  | 25.7 µM |  | 39 µM |  | 22.7 µM |  | 31.5 µM |  | 26.3 µM |  | 29.9 µM |  | 31.2 µM |  | 27 µM
COc1cc2c(cc1OC)C13CCN4CC5CCOC6CC(=O)N2C1C6C5CC43 (stereo not given) |  | > 100 µM |  | > 100 µM |  | > 100 µM |  | > 100 µM |  | > 100 µM |  | > 100 µM |  | > 100 µM |  | > 100 µM |  | > 100 µM |  | > 100 µM
CCNC(=O)O[C@H]1CN[C@H](C#Cc2cc3ncnc(Nc4ccc(OCc5cccc(F)c5)c(Cl)c4)c3s2)C1 | 1990 nM | > 25 µM | 3890 nM | 9.38 µM | 4720 nM | > 25 µM | 9830 nM | > 25 µM | 8950 nM | > 25 µM | 4350 nM | > 16 µM | 4750 nM | > 17.3 µM | 0.0299 µM | > 25 µM | 6990 nM | > 25 µM | > 22700 nM | > 25 µM
COc1cc(C2CC(c3ccc(Nc4ccnc5cc(Cl)ccc45)cc3)=NN2c2ccc(Cl)cc2)cc(OC)c1OC (stereo not given) | 1850 nM | > 100 µM | 2930 nM | > 100 µM | 8080 nM | > 100 µM | 877 nM | > 100 µM | 860 nM | > 100 µM | 1930 nM | 27.1 µM | 1340 nM | 8.05 µM | 3.26 µM | > 100 µM | 1200 nM | 56.3 µM | 2720 nM | 36.4 µM
CCN(CC)c1ccc(C(=O)c2ccc(N(CC)CC)cc2)cc1 | 935 nM | > 100 µM | 629 nM | 16.5 µM | 623 nM | 7.23 µM | 412 nM | 36.1 µM | 416 nM | > 74.4 µM | 1230 nM | 28.2 µM | 444 nM | 1.63 µM | 0.676 µM | 56.8 µM | 127 nM | > 100 µM | 461 nM | > 59.2 µM
O=C1C(=O)c2cccnc2-c2ncccc21 | 54.5 nM | 0.318 µM | 242 nM | 1.19 µM | 239 nM | 1.28 µM | 185 nM | 1.42 µM | 232 nM | 0.554 µM | 140 nM | 0.503 µM | 76.8 nM | 0.266 µM | 1.16 µM | 2.98 µM | 87.5 nM | 1.08 µM | 268 nM | 0.924 µM
CCCCCCCc1cc2c3c(nc4ccccc42)C(=O)c2cccnc2-c3n1 | 4080 nM | 8.19 µM | 16200 nM | 33.2 µM | 2540 nM | 6.63 µM | 970 nM | 5.58 µM | 1540 nM | 5.92 µM | 6710 nM | 20 µM | 5670 nM | 11.1 µM | 15.3 µM | 28.6 µM | 3020 nM | 10.7 µM | 1960 nM | 3.46 µM
Cc1ccc(O)c(NC(=O)c2ccc(CNc3ccnc(C(F)(F)F)c3)cc2)c1 | 3660 nM | > 100 µM | 3480 nM | 28.4 µM | 12800 nM | 39.4 µM | 5190 nM | 76.3 µM | 4060 nM | 38.9 µM | 3360 nM | 47.2 µM | 25400 nM | 63.1 µM | 3.87 µM | 36.7 µM | 5100 nM | 30 µM | 12200 nM | 48.5 µM
CN(Cc1cc(C(C)(C)C)cc(Br)c1O)Cc1cc(C(C)(C)C)cc(Br)c1O |  | 9.01 µM |  | 14.4 µM |  | 19.3 µM |  | 12.1 µM |  | 10.7 µM |  | 6.91 µM |  | 7.98 µM |  | 22.2 µM |  | 12.2 µM |  | 5.85 µM
